Consider four compounds from patent publication US12668568B2, “Adamantanyl-substituted benzamide compounds and their use as P2X7 receptor antagonists” (The University of Sydney, priority 2018, dated 2026).

A short description of series [1]: Liver microsome stability. The series is classed as in vitro ADME. Particulars: liver microsomes, rat liver microsome, 37° C., read-out: Liver microsome T1/2 (converted). From the text:
Microsomes are vesicles of endoplasmic reticulum isolated from liver homogenate following differential centrifugation. They contain drug metabolising enzymes including the cytochromes P450 (CYP) responsible for a majority of drug metabolism. They also contain the phase II metabolising enzyme responsible for glucuronidation—uridine diphosphate glucuronyltransferase (UDPGT). As they contain many of the drug metabolizing enzymes found in the liver they are useful in vitro models of hepatic clearance. Assays are performed by incubating drugs of interest at a concentration of 1 μM with the microsomes at 37° C. The disappearance of the test compound is monitored at fixed points over a period of 60 minutes and samples analysed using LC-MSMS. The resulting data can be used to determine: • 1. Intrinsic clearance. These values can be used to categorise compounds into bands of high, medium or low clearance. Generally compounds with high clearances are considered to be less favourable as they are likely to be cleared more rapidly in vivo resulting in a short duration of action. • 2. Rank order compounds in order of microsomal stability by calculating half-life. Cytochrome Profiling […]

Series [2] in a line: In vivo pharmacokinetic study, intravenous bolus. Particulars: rat, 1 mg/kg intravenous bolus; for AUC / AUC(0-inf) / clearance / Tmax / Vd / Cmax / half-life: male, Hans Wistar. How it is done: Male Hans Wistar rats were purchased from Charles River Laboratories UK. During the acclimatisation period the rats were group housed in cages of three and maintained under a 12 hour light/dark cycle with free access to food and water. Temperature and humidity were controlled according to UK Home Office regulations.
All compounds were formulated immediately prior to dosing in 10% DMSO, 20% Cremophor EL, 70% saline to provide 1 mg/ml solutions. Each rat received a weight corrected dose of formulated drug at 1 mg/kg administered by intravenous bolus injection via a lateral tail vein.
Terminal plasma and brain samples were collected from n=3 animals at specified time points (0.017, 0.083, 0.25, 0.5, 1, 2, 4 and 6 hours following dose administration).
Drug quantification was performed using liquid chromatography-tandem mass spectrometry using electrospray ionisation. Pharmacokinetic parameters were calculated using Phoenix WinNonlin software.

The target in the next series is T1, CYP2C19 (Homo sapiens, UniProt P33261).
T1 construct: host or cells: insect cells infected with recombinant baculovirus (microsomes)
T1 sequence (P33261 whole entry): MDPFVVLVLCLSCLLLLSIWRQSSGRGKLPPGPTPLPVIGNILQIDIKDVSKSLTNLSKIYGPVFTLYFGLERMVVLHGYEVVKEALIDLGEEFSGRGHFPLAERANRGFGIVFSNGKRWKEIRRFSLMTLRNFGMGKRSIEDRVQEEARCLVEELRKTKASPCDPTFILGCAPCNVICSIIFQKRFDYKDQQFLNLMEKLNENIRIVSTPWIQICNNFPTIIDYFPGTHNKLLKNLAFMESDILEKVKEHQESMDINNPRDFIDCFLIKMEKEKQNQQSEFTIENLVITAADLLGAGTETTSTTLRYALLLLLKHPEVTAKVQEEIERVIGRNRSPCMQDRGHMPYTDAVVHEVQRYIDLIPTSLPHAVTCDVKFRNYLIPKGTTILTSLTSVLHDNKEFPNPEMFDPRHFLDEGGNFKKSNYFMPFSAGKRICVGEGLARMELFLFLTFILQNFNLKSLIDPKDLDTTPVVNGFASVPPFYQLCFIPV
Description: Cytochrome profiling CYP2C19 (baculosomes). The series is classed as in vitro ADME. Particulars: probe fluorogenic probe substrate (not named), 10 μM substrate. From the text:
Cytochrome P450 (abbreviated CYP, P450 or CYP450) belong to very large and diverse superfamily of haemoproteins which accept both exogenous and endogenous compounds as substrates in enzymatic reactions and play a major role in drug metabolism. Although this class has more than 50 enzymes just 5 of them (CYP1A2, CYP2C9, CYP2C19, CYP2D6 and CYP3A4) are able to metabolise almost 90% of all drugs. Inhibition of these enzymes is one of the major reasons for drug-drug interactions. Consequently, detailed CYP inhibition profiles are a regulatory requirement for all new drugs. Inhibition potencies against the five most relevant CYP isoforms is performed using baculosomes; microsomes prepared from insect cells infected with recombinant baculovirus containing cDNA for a specific human P450 isozyme. The baculosomes are incubated with drug at a concentration of 1 μM in the presence of a probe substrate for 60 minutes at 37° C. The probe is normally metabolised by the baculosomes to produce a fluorescent metabolite. A substrate drug will compete for the isozyme and reduce the metabolism of the probe resulting in a decrease in the fluorescent signal. The percent inhibition due to the presence of the test compound is calculated using the following equation: [formula] • X=fluorescent intensity observed in the presence of test compound • A=fluorescent intensity observed in control • B=fluorescent intensity observed in the presence of the probe control

A further series has as its target T2, hP2X7R (Homo sapiens, UniProt Q99572).
T2 sequence (Q99572 1-595): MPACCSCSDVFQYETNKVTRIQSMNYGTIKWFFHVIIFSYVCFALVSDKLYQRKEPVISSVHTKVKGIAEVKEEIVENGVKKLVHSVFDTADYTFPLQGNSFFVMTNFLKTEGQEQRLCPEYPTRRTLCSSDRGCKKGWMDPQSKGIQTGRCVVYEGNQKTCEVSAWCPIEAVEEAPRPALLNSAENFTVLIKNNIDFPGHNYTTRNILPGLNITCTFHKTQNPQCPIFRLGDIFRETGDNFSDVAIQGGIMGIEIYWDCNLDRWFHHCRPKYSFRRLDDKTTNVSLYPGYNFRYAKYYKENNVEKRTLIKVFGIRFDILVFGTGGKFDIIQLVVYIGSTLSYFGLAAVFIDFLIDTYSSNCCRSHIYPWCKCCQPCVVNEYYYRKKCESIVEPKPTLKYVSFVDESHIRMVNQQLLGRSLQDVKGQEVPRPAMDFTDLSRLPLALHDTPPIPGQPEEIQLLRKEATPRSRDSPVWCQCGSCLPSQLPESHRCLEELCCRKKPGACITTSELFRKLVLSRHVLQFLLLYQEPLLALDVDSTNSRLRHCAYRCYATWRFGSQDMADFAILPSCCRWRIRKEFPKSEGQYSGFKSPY
Kind of series: Radioligand binding assay, displacement of [3H]-Compound 31, HEK-hP2X7 membranes. Particulars: displacement of tritium-labeled benzamide 31-t3, HEK cells expressing hP2X7R; mean ± standard deviation, n >3; read-out: Binding affinity Ki. How it is done: Homogenates were centrifuged at 48 000 g for 20 min at 4° C., the supernatant discarded and the pellet resuspended in Tris HCl 50 mM (pH 7.4 at 4° C.). Two additional spins at 48 000 g followed, discarding the supernatant each time and resuspending the pellet in 50 mM Tris HCl each time. Protein content was determined via bicinchoninic acid (BCA) assay (Pierce Biotechnology Inc., Rockford), the membrane solution supplemented with 0.1% bovine serum albumin (BSA) and stored at −80° C.
The incubation was terminated by rapid filtration through a glass fibre filter (GF/B; Millipore, Ireland), presoaked beforehand with 0.3% PEI) and washed 10 times with 50 mM Tris HCl (4° C.). The filters were then allowed to dry overnight before adding Microscint-0 scintillation cocktail (Perkin Elmer). […] For Kd and Bmax determination the specific binding was calculated (total binding minus non-specific binding) and analyzed using a one-site binding model (hyperbolic). The total binding and non-specific binding were also plotted for comparison (see FIG. 4). […] The extra sum of squares F-test was used to evaluate three potential models to fit the data; a one-site fit (with hill slope constrained to 1), a one-site fit (with hill slope as a variable) and a two-site fit. […] The Koff from dissociation studies was calculated using non-linear regression (exponential model) and then, in combination with the data from association studies, used to calculate the Kon. All data were analyzed using GraphPad Prism 5.
A general note: Loss of bound radioactivity is the signal in a displacement assay; it reports binding, not function.

Where [3] appears, read: brain, read-out: T1/2 Brain (converted).
Setting [4] is: plasma, read-out: T1/2 Plasma (converted).

Usually Tmax stands for the time at which the peak concentration occurs. The term Vd denotes the apparent volume that relates the amount in the body to the concentration in plasma or blood. Broadly, the Cmax is the peak of the concentration-time curve. For orientation: inhibition means the relative decrease from the control value, in per cent. One may read the Ki as the equilibrium dissociation constant of an inhibitor or competing ligand from its target.

Read-outs that look alike come from different tables or passages of the source.

Take `COc1ccc(Cl)c(C(=O)NCC23CC4(F)CC(F)(CC(F)(C4)C2)C3)c1` [Compound 1, 2-Chloro-N-((3,5,7-trifluoroadamantan-1-yl)methyl)-5-methoxybenzamide]: the half-life at 1 μM in series [1] was 46.8 min. Besides, the AUC in series [2] (brain, read-out: AUC6 Brain) amounted to 380 ng·h/mL; in series [2] (plasma, read-out: AUC6 Plasma), 385 ng·h/mL. Also, the AUC(0-inf) in series [2] (brain, read-out: AUC∞ Brain) was 386 ng·h/mL; in series [2] (plasma, read-out: AUC∞ Plasma), 399 ng·h/mL. For the same compound, the clearance in series [2] (brain, read-out: Cl Brain) turned out to be 43.2 mL/min/kg; in series [2] (plasma, read-out: Cl Plasma) it was 41.8 mL/min/kg. For the same compound, the Tmax amounted to 1.2 min in series [2] (brain, read-out: Tmax Brain) and 1.2 min in series [2] (plasma, read-out: Tmax Plasma). The Vd in series [2] (brain, read-out: Vd Brain) is 2.1 L/kg; in series [2] (plasma, read-out: Vd Plasma), 2.75 L/kg. Moreover, in series [2] (plasma), the Cmax came out at 1290 ng/mL. In addition, the “Cmax Brain” value in series [2] (brain) was determined as 1464 ng/mL. Further, the “T1/2 Brain” value in series [2] (brain) came to 75.6 min. In addition, the “T1/2 Plasma” value in series [2] (plasma) stood at 103 min. In addition, the inhibition at 60 min, 1 μM on CYP2C19 was 12.9%.
`COc1ccc(Cl)c(C(=O)NCC23CC4CC(F)(CC(F)(C4)C2)C3)c1` [Compound 2, 2-Chloro-N-((3,5-difluoroadamantan-1-yl)methyl)-5-methoxybenzamide]: the Ki on hP2X7R is 23 ± 5 nM. Besides, in series [1], the half-life at 1 μM was 18 min. Moreover, the AUC in series [2] (brain, read-out: AUC6 Brain) was 209 ng·h/mL; in series [2] (plasma, read-out: AUC6 Plasma), 196 ng·h/mL. The AUC(0-inf) in series [2] (brain, read-out: AUC∞ Brain) is 217 ng·h/mL; in series [2] (plasma, read-out: AUC∞ Plasma) it was 199 ng·h/mL. Further, the clearance was found to be 76.9 mL/min/kg in series [2] (brain, read-out: Cl Brain) and 83.5 mL/min/kg in series [2] (plasma, read-out: Cl Plasma). For the same compound, the half-life was 35.4 min in series [2] (setting [3]) and 28.2 min in series [2] (setting [4]). For the same compound, the Tmax in series [2] (brain, read-out: Tmax Brain) turned out to be 1.2 min; in series [2] (plasma, read-out: Tmax Plasma), 1.2 min. For the same compound, the Vd was 1.54 L/kg in series [2] (brain, read-out: Vd Brain) and 1.41 L/kg in series [2] (plasma, read-out: Vd Plasma). In series [2] (plasma), this compound came in with a maximum concentration (Cmax) of 1720 ng/mL. Moreover, in series [2] (brain), the “Cmax Brain” value is on record as 1838 ng/mL. The inhibition at 60 min, 1 μM at CYP2C19 is 1.5%.
In the case of `COc1ccc(Cl)c(C(=O)NCC23CC4CC(CC(F)(C4)C2)C3)c1` [Compound 3, 2-Chloro-N-((3-fluoroadamantan-1-yl)methyl)-5-methoxybenzamide], the Ki at hP2X7R was 21.9 ± 0.5 nM. Also, in series [1], the half-life at 1 μM is 4.8 min. Further, the AUC in series [2] (brain, read-out: AUC6 Brain) is 286 ng·h/mL; in series [2] (plasma, read-out: AUC6 Plasma), 175 ng·h/mL. The AUC(0-inf) in series [2] (brain, read-out: AUC∞ Brain) came out at 291 ng·h/mL; in series [2] (plasma, read-out: AUC∞ Plasma), 178 ng·h/mL. The clearance in series [2] (brain, read-out: Cl Brain) was 57.3 mL/min/kg; in series [2] (plasma, read-out: Cl Plasma), 93.4 mL/min/kg. Besides, the half-life in series [2] (setting [3]) and in series [2] (setting [4]) was 25.8 min each time. In addition, the Tmax in series [2] (brain, read-out: Tmax Brain) came out at 1.2 min; in series [2] (plasma, read-out: Tmax Plasma), 1.2 min. The Vd in series [2] (brain, read-out: Vd Brain) amounted to 0.92 L/kg; in series [2] (plasma, read-out: Vd Plasma) it was 1.8 L/kg. The highest level in series [2] (plasma) (Cmax) was 1260 ng/mL. The “Cmax Brain” value in series [2] (brain) is given as 2422 ng/mL. The compound further returned an inhibition at 60 min, 1 μM on CYP2C19 of 46.9%.
Regarding `COc1ccc(Cl)c(C(=O)NCC23CC4CC(CC(C4)C2)C3)c1` [Compound 31, reference compound], the Ki on hP2X7R was 8.5 nM. Moreover, the half-life at 1 μM in series [1] is 7.8 min. Besides, the AUC in series [2] (brain, read-out: AUC6 Brain) worked out at 221 ng·h/mL; in series [2] (plasma, read-out: AUC6 Plasma), 186 ng·h/mL. Also, the AUC(0-inf) stood at 246 ng·h/mL in series [2] (brain, read-out: AUC∞ Brain) and 192 ng·h/mL in series [2] (plasma, read-out: AUC∞ Plasma). The clearance was 67.8 mL/min/kg in series [2] (brain, read-out: Cl Brain) and 86.9 mL/min/kg in series [2] (plasma, read-out: Cl Plasma). Further, the Tmax was found to be 1.2 min in series [2] (brain, read-out: Tmax Brain) and 1.2 min in series [2] (plasma, read-out: Tmax Plasma). The Vd in series [2] (brain, read-out: Vd Brain) came to 0.77 L/kg; in series [2] (plasma, read-out: Vd Plasma), 2.09 L/kg. In addition, the Cmax in series [2] (plasma) was determined as 1190 ng/mL. Also, the “Cmax Brain” value in series [2] (brain) is given as 1696 ng/mL. Also, the “T1/2 Brain” value in series [2] (brain) came out at 9.6 min. Further, the “T1/2 Plasma” value in series [2] (plasma) is 28.2 min. At CYP2C19, this compound displayed an inhibition at 60 min, 1 μM of 84.4%.
